“And” between values parts separate entries of the source, which are not always exact repeats. Equal values may be shown once.
What was measured:
Assay in all cases: Two-electrode voltage clamp of mutant KCNQ1 in Xenopus oocytes
Format in all cases: cell-based
[1] = target: KCNQ1 R249A/S253A/K354A/K358A (Homo sapiens, UniProt P51787, K354A/K358A/R249A/S253A)
Text: (§1) In a previous study, mutation of residues in the predicted PIP2-binding site reduced KCNQ1 currents. CP1 modifies voltage-dependent activation of KCNQ1 channels by shifting the voltage dependence of channel opening, measured as the voltage dependence of the conductance (G–V) relationship, to more negative voltages (Fig. 1c) among other characteristics (see below). We made mutations to the residues around the CP1-interacting pocket as indicated by molecular docking (Fig. 1b), and examined the effects of the mutations on the CP1-induced shift of the G–V relationship. The mutations of the KCNQ1 residues that interact with CP1 in docking simulations reduced the shift of the G–V relationship (Fig. 1c, d), supporting the interaction of these residues with CP1.
(§2) Complementary DNA (cDNA) encoding human KCNQ1 (UniProtKB/Swiss‐Prot under accession no. P51787), KCNQ2 (O43526), KCNQ3 (O43525), KCNE1 (P15382), Kir1.1 (P48048), hERG (Q12809), KV4.2 (Q63881), NaV1.5 (Q14524), NaV β1 (Q07699), CaV1.2 (Q13936), CaV β1a (Q02641), CaV α2/δ1 (P54289), and HCN4 (Q9Y3Q4) were subcloned into oocyte expression vectors, respectively. Site-directed mutations of the KCNQ1 channel were all produced by overlap extension polymerase chain reaction (PCR) with high-fidelity Pfu polymerase (Stratagene, CA). The presence of the desired mutation was verified by sequencing the PCR-amplified regions. All the primer sequences used in this study are available in Supplementary Table 1. The complementary RNA (cRNA) of all these channels and mutations was transcribed in vitro with the T3, T7, or SP6 polymerase mMessage mMachine kit (Invitrogen, Thermo Fisher Scientific, MO).
(§3) The use of Xenopus laevis to obtain oocytes was approved by the Washington University Animal Studies Committee (protocol #20190030). Oocytes were manually dispersed and digested with collagenase (0.5 mg/ml, Sigma-Aldrich, Saint Louis, MO) to remove the follicle cell layer. Stage V or VI oocytes were selected and injected with cRNAs (9.2 ng) of channel or mutations. Especially, to characterize IKs, a mix of cRNAs at a molar ratio 4:1 (KCNQ1:KCNE1) was injected. For KCNQ2/KCNQ3, the molar ratio was 1:1 (KCNQ2:KCNQ3). For sodium channels, a 3:1 molar ratio (β1:NaV1.5) and for calcium channels a weight ratio 1:1:1 (β1:α2/δ1:CaV1.2) was injected, respectively. Injected oocytes were incubated in ND96 solution containing (in mM) 96 NaCl, 2 KCl, 1.8 CaCl2, 1 MgCl2, and 5 HEPES, pH 7.6, supplemented with 2.5 mM Na pyruvate and 1% penicillin–streptomycin, at 18 °C for 3–7 days before recording.
(§4) The whole-oocyte ionic currents were recorded with a GeneClamp 500B amplifier (Axon Instruments, CA) or iTEV90 amplifier (HEKA, Germany) and then sampled at 1 kHz and low-pass-filtered at 2 kHz. The Patchmaster software (HEKA, Germany) was used to acquire data. The Kir1.1 current was recorded with a high K^+ bath solution containing (in mM) 96 KCl, 4 NaCl, 1 CaCl2, 2 MgCl2, and 10 HEPES, pH 7.3–7.4. The HCN4 current was recorded in ND66 solution containing (in mM) 66 NaCl, 32 KCl, 1.8 CaCl2, 1 MgCl2, and 5 HEPES, pH 7.6. All the other potassium channels were recorded in ND96 solution. The currents of CaV1.2 channel were recorded in 40 mM Ba^2+ bath solution containing (in mM) 40 Ba(OH)2, 50 TEA-OH, 2 KOH, and 5 HEPES, adjusted to pH 7.4 with methanesulfonic acid. CP1 (DISODIUM 5-BROMO-2-[9-CHLORO-3-(SULFONATOOXY) NAPHTHO [1,2-B] THIEN-2-YL]-1H-INDOL-3-YL SULFATE, Sigma-Aldrich, MO) and Chromanol 293B (Sigma-Aldrich, MO) were dissolved in bath solutions. All the chemicals were purchased from Sigma-Aldrich. To measure the I–V relations of the Kir1.1 channel, the test voltage was set from −100 to +60 mV for 1 s with 20-mV increments. The test pulses were stepped from a holding potential of 0 mV and then stepped back to 0 mV. The HCN4 currents were recorded by a test pulse between −30 and −140 mV in 10-mV step from a holding potential of −30 mV. […]

KCNQ1 R249A/K354A = KCNQ1 R249A/K354A (Homo sapiens, UniProt P51787, K354A/R249A); details: 10 µM CP1, individual oocytes
Text: as §1, §2, §3, §4

KCNQ1 R243A = KCNQ1 R243A (Homo sapiens, UniProt P51787, R243A); details: 10 µM CP1, individual oocytes
Text: as §1, §2, §3, §4

KCNQ1 R259A = KCNQ1 R259A (Homo sapiens, UniProt P51787, R259A); details: 10 µM CP1, individual oocytes
Text: as §1, §2, §3, §4

KCNQ1 R249A = KCNQ1 R249A (Homo sapiens, UniProt P51787, R249A)
Text: as §1, §2, §3, §4

G/Gmax ([1]; 10 µM CP1, 0 mV): 0.6125
G/Gmax ([1]; 10 µM CP1, 10 mV): 0.7412
G/Gmax ([1]; 10 µM CP1, 20 mV): 0.8671
G/Gmax ([1]; 10 µM CP1, 30 mV): 0.9470
G/Gmax ([1]; 10 µM CP1, 40 mV): 1.0000
G/Gmax ([1]; 10 µM CP1, -10 mV): 0.4658
G/Gmax ([1]; 10 µM CP1, -20 mV): 0.3584
G/Gmax ([1]; 10 µM CP1, -30 mV): 0.2410
G/Gmax ([1]; 10 µM CP1, -40 mV): 0.1854
G/Gmax ([1]; 10 µM CP1, -50 mV): 0.1254
G/Gmax ([1]; 10 µM CP1, -60 mV): 0.1039
G/Gmax ([1]; 10 µM CP1, -70 mV): 0.0777
G/Gmax ([1]; 10 µM CP1, -80 mV): 0.0665
G/Gmax ([1]; 10 µM CP1, -90 mV): 0.0440
G/Gmax ([1]; 10 µM CP1, -100 mV): 0.0354
G/Gmax ([1]; 10 µM CP1, -110 mV): 0.0175
G/Gmax ([1]; 10 µM CP1, -120 mV): 0.0015
G/Gmax (KCNQ1 R249A; 10 µM CP1, 0 mV): 0.9092
G/Gmax (KCNQ1 R249A; 10 µM CP1, 10 mV): 0.9509
G/Gmax (KCNQ1 R249A; 10 µM CP1, 20 mV): 0.9864
G/Gmax (KCNQ1 R249A; 10 µM CP1, 30 mV): 1.0000
G/Gmax (KCNQ1 R249A; 10 µM CP1, -10 mV): 0.8439
G/Gmax (KCNQ1 R249A; 10 µM CP1, -20 mV): 0.7664
G/Gmax (KCNQ1 R249A; 10 µM CP1, -30 mV): 0.6715
G/Gmax (KCNQ1 R249A; 10 µM CP1, -40 mV): 0.5716
G/Gmax (KCNQ1 R249A; 10 µM CP1, -50 mV): 0.4548
G/Gmax (KCNQ1 R249A; 10 µM CP1, -60 mV): 0.3517
G/Gmax (KCNQ1 R249A; 10 µM CP1, -70 mV): 0.2667
G/Gmax (KCNQ1 R249A; 10 µM CP1, -80 mV): 0.1987
G/Gmax (KCNQ1 R249A; 10 µM CP1, -90 mV): 0.1385
G/Gmax (KCNQ1 R249A; 10 µM CP1, -100 mV): 0.0990
G/Gmax (KCNQ1 R249A; 10 µM CP1, -110 mV): 0.0539
G/Gmax (KCNQ1 R249A; 10 µM CP1, -120 mV): 0.0000
Structure (SMILES): O=S(=O)([O-])Oc1c(-c2sc3c(ccc4cccc(Cl)c43)c2OS(=O)(=O)[O-])[nH]c2ccc(Br)cc12.[Na+].[Na+] [CP1, DISODIUM 5-BROMO-2-[9-CHLORO-3-(SULFONATOOXY) NAPHTHO [1,2-B] THIEN-2-YL]-1H-INDOL-3-YL SULFATE]
∆V1/2 ([1]; 10 µM CP1, individual oocytes): 21.6716 mV and 20.4143 mV and 21.6154 mV and 29.7699 mV
∆V1/2 (KCNQ1 R249A/K354A): 32.102 mV and 39.1842 mV and 11.494 mV and 26.1488 mV and 17.9511 mV
∆V1/2 (KCNQ1 R243A): 24.1172 mV and 49.8519 mV and 42.6967 mV and 36.2884 mV and 45.9483 mV and 47.7413 mV
∆V1/2 (KCNQ1 R259A): 40.9982 mV and 50.0211 mV and 57.3239 mV and 73.9485 mV
∆V1/2 (KCNQ1 R249A; 10 µM CP1, individual oocytes): 32.4733 mV and 36.93 mV and 39.3292 mV and 47.5115 mV and 29.4037 mV

— paper PMC7367283, “A PIP2 substitute mediates voltage sensor-pore coupling in KCNQ activation” (Communications Biology, 2020)
